Experimental findings from patent US11292792B2, “Tricyclic CRBN ligands and uses thereof” (Kymera Therapeutics, Inc., priority 2018, dated 2022) are described below.

Bounds are passed on as bounds.

The target in the first assay is His-tagged CRBN-DDB1 complex (Homo sapiens (Human), UniProt Q96SW2). Nature of the assay: Time-resolved fluorescence resonance energy transfer (TR-FRET) assay, displacement of Cy5-labeled thalidomide.
Sequence of His-tagged CRBN-DDB1 complex (Q96SW2 whole entry): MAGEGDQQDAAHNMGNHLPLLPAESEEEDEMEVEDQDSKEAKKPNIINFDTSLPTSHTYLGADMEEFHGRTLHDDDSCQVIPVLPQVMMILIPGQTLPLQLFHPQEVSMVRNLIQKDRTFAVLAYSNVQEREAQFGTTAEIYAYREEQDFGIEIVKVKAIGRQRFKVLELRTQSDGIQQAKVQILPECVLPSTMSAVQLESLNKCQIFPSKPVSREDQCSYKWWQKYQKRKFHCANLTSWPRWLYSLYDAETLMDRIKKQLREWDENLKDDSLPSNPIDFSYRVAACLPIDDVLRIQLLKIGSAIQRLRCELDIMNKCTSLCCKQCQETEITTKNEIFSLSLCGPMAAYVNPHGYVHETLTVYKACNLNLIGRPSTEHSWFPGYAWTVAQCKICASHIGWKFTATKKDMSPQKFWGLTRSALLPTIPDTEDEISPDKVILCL
Sequence of His-tagged CRBN-DDB1 complex (Q16531 whole entry partner): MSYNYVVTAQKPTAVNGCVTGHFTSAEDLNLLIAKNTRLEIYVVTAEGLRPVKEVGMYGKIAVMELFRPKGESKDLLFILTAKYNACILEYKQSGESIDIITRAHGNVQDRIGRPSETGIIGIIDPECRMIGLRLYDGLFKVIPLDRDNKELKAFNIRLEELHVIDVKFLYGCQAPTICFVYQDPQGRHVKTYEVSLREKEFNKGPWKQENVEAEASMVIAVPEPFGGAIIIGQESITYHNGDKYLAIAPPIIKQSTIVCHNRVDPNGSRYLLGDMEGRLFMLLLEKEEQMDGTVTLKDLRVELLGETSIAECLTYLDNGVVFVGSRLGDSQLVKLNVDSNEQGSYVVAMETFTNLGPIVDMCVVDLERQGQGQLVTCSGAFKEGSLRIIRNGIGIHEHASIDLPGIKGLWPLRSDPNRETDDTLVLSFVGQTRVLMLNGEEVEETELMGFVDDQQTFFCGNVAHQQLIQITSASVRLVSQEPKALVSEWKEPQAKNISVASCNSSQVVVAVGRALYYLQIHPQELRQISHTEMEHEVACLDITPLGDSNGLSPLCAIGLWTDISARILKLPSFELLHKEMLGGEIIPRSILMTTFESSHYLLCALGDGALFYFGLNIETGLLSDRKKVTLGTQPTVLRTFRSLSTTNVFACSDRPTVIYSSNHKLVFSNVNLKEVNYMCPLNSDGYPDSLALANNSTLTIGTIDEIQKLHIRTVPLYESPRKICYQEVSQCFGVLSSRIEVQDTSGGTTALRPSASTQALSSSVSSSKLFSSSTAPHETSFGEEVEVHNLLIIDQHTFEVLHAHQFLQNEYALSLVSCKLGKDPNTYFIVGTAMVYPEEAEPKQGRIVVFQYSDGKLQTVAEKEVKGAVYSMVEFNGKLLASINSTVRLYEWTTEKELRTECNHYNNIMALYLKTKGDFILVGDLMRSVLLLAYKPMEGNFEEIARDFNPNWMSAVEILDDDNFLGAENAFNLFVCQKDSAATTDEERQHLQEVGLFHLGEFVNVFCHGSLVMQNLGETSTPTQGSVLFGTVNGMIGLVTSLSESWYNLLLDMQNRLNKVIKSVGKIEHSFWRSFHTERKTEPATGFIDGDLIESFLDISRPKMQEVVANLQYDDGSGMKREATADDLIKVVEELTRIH
Conditions: not given
It is filed as binding. As to the method: Equal volumes of His-tagged CRBN-DDB1 complex (56 nM) was mixed with Eu-cryptate labeled Anti-6HIS-monoclonal antibody (50× dilution from the commercial stock solution, Vender: Cisbio, Cat. #61HI2KLA) in a final buffer containing 20 mM HEPES pH 7.0, 150 mM NaCl, 0.005% Tween-20. […] The mixture were incubated at room temperature for 1 hour. FRET signals were measured on an EnVision plate reader (Perkin Elmer) by exciting at 340 nm and recording emission at both 615 nm as no FRET control and 665 nm as the FRET signals with a 60 microsecond delay. FRET efficiency was calculated as the ratio of fluorescent signals at […]. Quantitative loss of FRET efficiency as a function of compound concentrations was fitted by a four-parameter Logistic Function using GraphPad Prism 7.0 and the IC50 values were reported for each compound.
The compound numbers correspond to the compound numbers in Table 1.
For orientation: Time-resolved FRET reads energy transfer from a long-lived donor to a nearby acceptor.
For `O=C1CCC(N2C(=O)CN=C(c3ccccc3)c3ccccc32)C(=O)N1` (stereo not shown) [I-41], the IC50 is 30 to 100 µM.

The assay is the same for the next values; noted with them: read-out: CRBN HTRF IC50.
Turning to `Nc1ccc2c(c1)c1cccnc1n2C1CCC(=O)NC1=O` (stereo not shown) [I-5, 3-(6-Amino-9H-pyrido[2,3-b]indol-9-yl)piperidine-2,6-dione], the concentration for half-maximal inhibition (IC50) is below 10 µM.
Same read-out and setting: under `O=C1CCC(n2c3ccccc3c3c(Br)ccnc32)C(=O)N1` (stereo not shown) [I-31] stands below 10 µM; under `O=C1CCC(n2c3ccccc3c3ccc(C(F)(F)F)nc32)C(=O)N1` (stereo not shown) [I-85], 10 to 30 µM.
Same read-out and setting: to `N#Cc1ccc2c3ccccc3n(C3CCC(=O)NC3=O)c2n1` (stereo not shown) [I-81, 9-(2,6-dioxopiperidin-3-yl)-9H-pyrido[2,3-b]indole-2-carbonitrile] belongs 10 to 30 µM; to `CC(C)(C)OC(=O)NCCOCCOC(=O)NCc1ccc2c(c1)c1cccnc1n2C1CCC(=O)NC1=O` (stereo not shown) [I-38, 2-(2-((tert-butoxycarbonyl)amino)ethoxy)ethyl ((9-(2,6-dioxopiperidin-3-yl)-9H-pyrido[2,3-b]indol-6-yl)methyl)carbamate], below 10 µM.
Consider `O=C1CCC(n2c3ccccc3c3c(Cl)csc32)C(=O)N1` (stereo not shown) [I-93, 3-(3-chloro-8H-thieno[2,3-b]indol-8-yl)piperidine-2,6-dione], for which the IC50 is below 10 µM.
For the compound `O=C1CCC(n2c3ccccc3n3ccnc23)C(=O)N1` (stereo not shown) [I-99], the half-inhibitory concentration (IC50) lay within 30 to 100 µM.
Consider `CC(C)(C)OC(=O)NCCOCCOCCCc1ccc2c3ccccc3n(C3CCC(=O)NC3=O)c2n1` (stereo not shown) [I-73], for which the IC50 was 10 to 30 µM.
Same read-out and setting: under `CC(=O)Nc1ccc2c3ccccc3n(C3CCC(=O)NC3=O)c2n1` (stereo not shown) [I-90, N-(9-(2,6-dioxopiperidin-3-yl)-9H-pyrido[2,3-b]indol-2-yl)acetamide] stands 10 to 30 µM.
Still for that read-out and setting: under `CN(CCCOCC#Cc1ccc2c(c1)c1cccnc1n2C1CCC(=O)NC1=O)C(=O)OC(C)(C)C` (stereo not shown) [I-45] stands 10 to 30 µM.
Consider `CC(C)(C)OC(=O)NCCOCCOCCNc1ccc2c(c1)c1cccnc1n2C1CCC(=O)NC1=O` (stereo not shown) [I-35, tert-butyl (2-(2-(2-((9-(2,6-dioxopiperidin-3-yl)-9H-pyrido[2,3-b]indol-6-yl)amino)ethoxy)ethoxy)ethyl)carbamate], for which the IC50 was below 10 µM.
Take `COc1ccc2c3ccccc3n(C3CCC(=O)NC3=O)c2n1` (stereo not shown) [I-82]: the half-maximal inhibitory concentration (IC50) fell in the range of 10 to 30 µM.
The same measure, in the same setting: under `O=C1CCC(n2c3c(c4cccnc42)CCCC3)C(=O)N1` (stereo not shown) [I-70] stands 10 to 30 µM.
With `O=C1CCC(n2c3cc(Br)ccc3c3cccnc32)C(=O)N1` (stereo not shown) [I-102, 3-3-(7-Bromopyrido[2,3-b]indol-9-yl)piperidine-2,6-dione], the IC50 fell in the range of 10 to 30 µM.
As to `O=C1CCC(n2c3cccc(Br)c3c3cccnc32)C(=O)N1` (stereo not shown) [I-30], the IC50 was below 10 µM.
The same measure, in the same setting: to `Nc1ccc2c3ccccc3n(C3CCC(=O)NC3=O)c2n1` (stereo not shown) [I-78] belongs below 10 µM; to `O=C1CCC(n2c3ccccc3c3ccsc32)C(=O)N1` (stereo not shown) [I-72], below 10 µM; to `O=C1CCC(n2c3ccncc3c3cccnc32)C(=O)N1` (stereo not shown) [I-56, 3-(9H-pyrrolo[2,3-b:4,5-c′]dipyridin-9-yl)piperidine-2,6-dione], 10 to 30 µM.
Same read-out and setting: under `CC(C)(C)OC(=O)NCCOCCNC(=O)NCc1ccc2c(c1)c1cccnc1n2C1CCC(=O)NC1=O` (stereo not shown) [I-37, tert-butyl (2-(2-(3-((9-(2,6-dioxopiperidin-3-yl)-9H-pyrido[2,3-b]indol-6-yl)methyl)ureido)ethoxy)ethyl)carbamate] stands 10 to 30 µM; under `CN(C)c1ccc2c(c1)c1cccnc1n2C1CCC(=O)NC1=O` (stereo not shown) [I-28, 3-(6-(Dimethylamino)-9H-pyrido[2,3-b]indol-9-yl)piperidine-2,6-dione], below 10 µM; under `O=C1CCC(n2c3ccc(CCCOCCOCCO)cc3c3cccnc32)C(=O)N1` (stereo not shown) [I-46], below 10 µM.
Still for that read-out and setting: to `O=C1CCC(n2c3ccccc3c3scnc32)C(=O)N1` (stereo not shown) [I-66] belongs 10 to 30 µM.
With `CC(C)(C)OC(=O)NCCOCCOCCCc1ccnc2c1c1ccccc1n2C1CCC(=O)NC1=O` (stereo not shown) [I-57], the IC50 is below 10 µM.
Regarding `O=C1CCC(n2c3ccc(Br)cc3c3cccnc32)C(=O)N1` (stereo not shown) [I-26, 3-(6-Bromo-9H-pyrido[2,3-b]indol-9-yl)piperidine-2,6-dione], the IC50 was below 10 µM.
The same measure, in the same setting: to `O=C1CCC(n2c3cccc(CCCOCCOCCO)c3c3cccnc32)C(=O)N1` (stereo not shown) [I-51] belongs below 10 µM.
Still for that read-out and setting: to `O=C1CCC(n2c3ccccc3c3c(CCCOCCOCCO)ccnc32)C(=O)N1` (stereo not shown) [I-48] belongs below 10 µM; to `O=C1CCC(n2c3ccccc3c3cccnc32)C(=O)N1` (stereo not shown) [I-2, 3-(9H-pyrido[2,3-b]indol-9-yl)piperidine-2,6-dione], below 10 µM.
Consider `Cc1ccc2c3ccccc3n(C3CCC(=O)NC3=O)c2n1` (stereo not shown) [I-86, 3-(2-methyl-9H-pyrido[2,3-b]indol-9-yl)piperidine-2,6-dione], for which the IC50 is below 10 µM.
For the compound `CC(C)(C)OC(=O)NCCOCCOCC#Cc1ccc2c3ccccc3n(C3CCC(=O)NC3=O)c2n1` (stereo not shown) [I-74], the concentration for half-maximal inhibition (IC50) was 10 to 30 µM.
The same measure, in the same setting: under `O=C1CCC(n2c3ccc(Br)cc3c3ccsc32)C(=O)N1` (stereo not shown) [I-88] stands below 10 µM; under `O=C1CCC(n2c3ccccc3c3ccc(O)nc32)C(=O)N1` (stereo not shown) [I-83, 3-(2-hydroxy-9H-pyrido[2,3-b]indol-9-yl)piperidine-2,6-dione], below 10 µM.
The same measure, in the same setting: under `CC(C)(C)OC(=O)NCCOCCOCC#Cc1cccc2c1c1cccnc1n2C1CCC(=O)NC1=O` (stereo not shown) [I-61] stands below 10 µM; under `O=C1CCC(n2c3ccc(Br)cc3c3ccc(F)nc32)C(=O)N1` (stereo not shown) [I-92, 3-(6-bromo-2-fluoro-9H-pyrido[2,3-b]indol-9-yl)piperidine-2,6-dione], below 10 µM.
Still for that read-out and setting: under `O=C1CCC(n2c3cccc(F)c3c3cccnc32)C(=O)N1` (stereo not shown) [I-100] stands below 10 µM; under `O=C1CCC(n2c3ccc(C#CCOCCOCCOCc4ccccc4)cc3c3cccnc32)C(=O)N1` (stereo not shown) [I-47], below 10 µM; under `O=C1CCC(n2c3cccc(Br)c3c3ccsc32)C(=O)N1` (stereo not shown) [I-103, 3-(4-bromo-8H-thieno[2,3-b]indol-8-yl)piperidine-2,6-dione], below 10 µM.
For `Cc1ccnc2c1c1ccccc1n2C1CCC(=O)NC1=O` (stereo not shown) [I-77, 3-(4-methyl-9H-pyrido[2,3-b]indol-9-yl)piperidine-2,6-dione], the IC50 is below 10 µM.
On to `O=C1CCC(n2c3cnccc3c3cccnc32)C(=O)N1` (stereo not shown) [I-69, 3-(9H-pyrrolo[2,3-b:5,4-c′]dipyridin-9-yl)piperidine-2,6-dione], for which the 50% inhibitory concentration (IC50) was above 100 µM.
On the same count and under the same terms, to `O=C1CCC(n2c3ccccc3c3ncsc32)C(=O)N1` (stereo not shown) [I-87] belongs below 10 µM; to `CC(C)(C)OC(=O)NCCOCC#Cc1ccc2c(c1)c1cccnc1n2C1CCC(=O)NC1=O` (stereo not shown) [I-33, tert-Butyl (2-((3-(9-(2,6-dioxopiperidin-3-yl)-9H-pyrido[2,3-b]indol-6-yl)prop-2-yn-1-yl)oxy)ethyl)carbamate], below 10 µM.
Turning to `O=C1CCC(n2c3ncccc3c3cccnc32)C(=O)N1` (stereo not shown) [I-3, 3-(9H-pyrrolo[2,3-b:5,4-b′]dipyridin-9-yl)piperidine-2,6-dione], the IC50 lay in the range of 30 to 100 µM.
With `O=C1CCC(n2c3c(c4cccnc42)CN(C(=O)CCCCCCCCO)CC3)C(=O)N1` (stereo not shown) [I-68, 3-(6-(9-hydroxynonanoyl)-5,6,7,8-tetrahydro-9H-pyrrolo[2,3-b:4,5-c′]dipyridin-9-yl)piperidine-2,6-dione], the half-inhibitory concentration (IC50) fell in the range of 30 to 100 µM.
Still for that read-out and setting: to `CNc1ccc2c3ccccc3n(C3CCC(=O)NC3=O)c2n1` (stereo not shown) [I-79, 3-(2-(methylamino)-9H-pyrido[2,3-b]indol-9-yl)piperidine-2,6-dione] belongs below 10 µM; to `O=C1CCC(n2c3ccccc3c3cc(CCCOCCOCCO)cnc32)C(=O)N1` (stereo not shown) [I-54, 3-(3-(3-(2-(2-hydroxyethoxy)ethoxy)propyl)-9H-pyrido[2,3-b]indol-9-yl)piperidine-2,6-dione], 10 to 30 µM.
Still for that read-out and setting: to `Nc1cnc2c(c1)c1ccccc1n2C1CCC(=O)NC1=O` (stereo not shown) [I-39, 3-(3-amino-9H-pyrido[2,3-b]indol-9-yl)piperidine-2,6-dione] belongs below 10 µM.
On the same count and under the same terms, to `O=C1CCC(n2c3cc(Cl)ccc3c3cccnc32)C(=O)N1` (stereo not shown) [I-106, 3-(7-chloro-9H-pyrido[2,3-b]indol-9-yl)piperidine-2,6-dione] belongs 10 to 30 µM.
Regarding `O=C1CCC(n2c3ccccc3c3cnccc32)C(=O)N1` (stereo not shown) [I-43], the IC50 was 30 to 100 µM.
Turning to `O=C1CCC(n2ccn3c4ccccc4nc23)C(=O)N1` (stereo not shown) [I-94], the IC50 was 30 to 100 µM.
As to `NCCOCCOCCCc1cnc2c(c1)c1ccccc1n2C1CCC(=O)NC1=O` (stereo not shown) [I-59, 3-(3-(3-(2-(2-aminoethoxy)ethoxy)propyl)-9H-pyrido[2,3-b]indol-9-yl)piperidine-2,6-dione], the IC50 is below 10 µM.
The same measure, in the same setting: under `CC(C)(C)OC(=O)N1CCc2c(c3cccnc3n2C2CCC(=O)NC2=O)C1` (stereo not shown) [I-40, tert-butyl 9-(2,6-dioxopiperidin-3-yl)-7,8-dihydro-5H-pyrrolo[2,3-b:4,5-c′]dipyridine-6(9H)-carboxylate] stands 10 to 30 µM; under `O=C1CCC(n2c3ccccc3c3cncnc32)C(=O)N1` (stereo not shown) [I-67], 10 to 30 µM.
The same measure, in the same setting: under `NCc1ccc2c3ccccc3n(C3CCC(=O)NC3=O)c2n1` (stereo not shown) [I-91, 3-(2-(aminomethyl)-9H-pyrido[2,3-b]indol-9-yl)piperidine-2,6-dione] stands 30 to 100 µM.
For `O=C1CCC(n2c3ccc(NCCOCCOCCOCc4ccccc4)cc3c3cccnc32)C(=O)N1` (stereo not shown) [I-50], the half-maximal inhibitory concentration (IC50) is below 10 µM.
On the same count and under the same terms, to `O=C1CCC(n2c3ccccc3c3ccc(F)nc32)C(=O)N1` (stereo not shown) [I-84] belongs below 10 µM.

In general, IC50 refers to the midpoint of a concentration-inhibition curve.
